{"source": "paper PMC6993528", "about": "“Dehydroepiandrosterone and Its CYP7B1 Metabolite 7α-Hydroxydehydroepiandrosterone Regulates 11β-Hydroxysteroid Dehydrogenase 1 Directions in Rat Leydig Cells” (Frontiers in Endocrinology, 2020)", "key": {"[1]": {"molecular_target": "T1, 11β-HSD1 (Rattus norvegicus, UniProt P16232)", "T1 construct": "endogenous in cells; host or cells: primary rat adult Leydig cells (ALCs) from 90-day-old rat testes", "T1 sequence (P16232 whole entry)": "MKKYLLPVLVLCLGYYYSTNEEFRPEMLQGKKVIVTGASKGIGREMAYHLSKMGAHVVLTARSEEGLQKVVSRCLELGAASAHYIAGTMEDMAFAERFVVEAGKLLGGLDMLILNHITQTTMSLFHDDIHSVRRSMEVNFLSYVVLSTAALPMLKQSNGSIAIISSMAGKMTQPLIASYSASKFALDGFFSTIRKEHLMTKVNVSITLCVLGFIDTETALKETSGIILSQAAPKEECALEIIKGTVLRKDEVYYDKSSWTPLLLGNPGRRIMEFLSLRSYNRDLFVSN", "test": "11β-HSD1 oxidase assay in intact ALCs (CORT to DHC)", "format": "cell-based", "details": "for lowest observable effective level (LOEL) on 11β-HSD1 oxidase activity: 10 nM-10 μM tested", "source_text": "(§1) Testes were processed for purification of Leydig cells. The progenitor (PLC), immature (ILC), and adult Leydig cells (ALC) were purified from rat testes at 21, 35, and 90 days postpartum, as described previously ([25], [26]). In brief, forty 21-day-old (for PLCs), eighteen 35-day-old (for ILCs), and six 90-day-old (for ALCs) rats were sacrificed, followed by removal and decapsulation of testes. Then, the testes were digested with collagenase and cells were separated by Percoll density gradient centrifugation. Purities of Leydig cell fractions were evaluated by histochemical staining of 3β-hydroxysteroid dehydrogenase (3β-HSD), with 0.4 mM etiocholanolone as an enzyme substrate ([27]). At least six isolations per cell types were performed.\n(§2) 11β-HSD1 oxidase and reductase in intact ALCs were performed as previously described ([15]).11β-HSD1 oxidase activity assay tubes contained 25 nM CORT spiked with 60,000 dpm [^3H]-CORT (a concentration within the range of physiological levels of CORT). 11β-HSD1 reductase activity assay tubes contained 25 nM DHC spiked with 60,000 dpm [^3H]-DHC. 2.5 × 10^4 intact ALCs were added to start the reaction and the reaction was maintained in 34°C and 75 rpm shaking water bath for 30 min. The reactions were stopped by adding 2 ml ice-cold ether. The steroids were extracted, and the organic layer was dried under nitrogen. The steroids were separated chromatographically on thin layer plates in chloroform and methanol (90:10, v/v), and the radioactivity was measured using a scanning radiometer (System AR2000, Bioscan Inc., Washington, DC). The percentage conversion of CORT to DHC and DHC to CORT was calculated by dividing the radioactive counts identified as DHC (or CORT, respectively) by the total counts associated with CORT plus DHC."}, "[2]": {"molecular_target": "T1, 11β-HSD1", "test": "11β-HSD1 reductase assay in intact ALCs (DHC to CORT)", "format": "cell-based", "details": "for lowest observable effective level (LOEL) on 11β-HSD1 reductase activity: 10 nM-10 μM tested", "source_text": "as §1, §2"}, "[3]": {"molecular_target": "T1, 11β-HSD1", "test": "11β-HSD1 oxidase assay in ALC microsomes", "format": "biochemical", "procedure": "(§3) The microsomes from ALCs were prepared as described previously ([6]). In brief, ALCs were homogenized in cold 0.01M PBS, pH 7.2, containing 0.25 M sucrose. Subsequently, the homogenates were centrifuged at 700 × g for 30 min and the supernatants were transferred to other tubes followed by centrifugation at 10,000 × g for 30 min. The resultant supernatants were centrifuged twice at 105,000 × g for 1 h. The pellets were resuspended and the protein contents were determined by Bio-Rad Protein Assay Kit (cat# 500–0006, Bio-Rad, Hercules, CA). Microsomes were used to assay 11β-HSD1 oxidoreductase activities.\n(§4) 11β-HSD1 oxidase and reductase in microsomes were performed as previously described ([15]). For measurements in microsomal preparations, microsomes were incubated with 25 nM [^3H]-CORT and 0.2 mM NADP^+ for oxidase or 25 nM [^3H]-DHC and 0.2 mM NADPH for reductase activity in presence of different concentrations of DHEA or 7αOHD. For testing mode of action, microsomes were incubated with 2 nM to 10 μM [^3H]-CORT and 0.2 mM NADP^+ for oxidase or 2 nM to 10 μM [^3H]-DHC and 0.2 mM NADPH for reductase activity. 1.5 μg of ALC microsomes were added to initiate the reaction. The reactions were stopped by adding 2 ml ice-cold ether. The steroids were extracted, and the organic layer was dried under nitrogen. The steroids were separated chromatographically on thin layer plates in chloroform and methanol (90:10, v/v), and the radioactivity was measured using a scanning radiometer (System AR2000, Bioscan Inc., Washington, DC). The percentage conversion of CORT to DHC and DHC to CORT was calculated by dividing the radioactive counts identified as DHC (or CORT, respectively) by the total counts associated with CORT plus DHC."}, "[4]": {"molecular_target": "T1, 11β-HSD1", "test": "11β-HSD1 reductase assay in ALC microsomes", "format": "biochemical", "details": "for LOEL on 11β-HSD1 reductase activity in ALC microsomes: 10 nM-10 μM tested", "procedure": "as §3, §4"}, "[5]": {"details": "ALC microsomes, 0, 1 and 10 μM, Lineweaver-Burk plot"}}, "note": "“Also recorded” adds a separate entry of the source.", "data": [{"smiles": "C[C@]12CC[C@H](O)CC1=C[C@@H](O)[C@@H]1[C@@H]2CC[C@]2(C)C(=O)CC[C@@H]12", "note": "[7αOHD, 7α-hydroxydehydroepiandrosterone]", "values": [{"measurement": "lowest observable effective level (LOEL) on 11β-HSD1 oxidase activity", "setting": "[1]; intact ALCs", "result": 100, "unit": "nM"}, {"measurement": "IC50", "setting": "[1]; intact ALCs, 25 nM CORT, 0.5 h, Mean ± SEM (n = 4), read-out: IC50 for inhibition of 11β-HSD1 oxidase, intact Leydig cells", "result": "1.18 ± 0.12", "unit": "µM"}, {"measurement": "11β-HSD1 oxidase activity", "setting": "[1]; intact ALCs, at 1 μM", "result": "60 % of control"}, {"measurement": "11β-HSD1 oxidase/reductase ratio", "setting": "[1]; intact ALCs, at 1 μM", "result": "50 % of control"}, {"measurement": "11β-HSD1 oxidase activity", "setting": "[1]; intact ALCs, at 10 μM", "result": "25 % of control"}, {"measurement": "11β-HSD1 oxidase/reductase ratio", "setting": "[1]; intact ALCs, at 10 μM", "result": "20 % of control"}, {"measurement": "lowest observable effective level (LOEL) on 11β-HSD1 reductase activity", "setting": "[2]; intact ALCs", "result": 100, "unit": "nM"}, {"measurement": "EC50", "setting": "[2]; intact ALCs, 25 nM DHC, 0.5 h, Mean ± SEM (n = 4), read-out: EC50 for stimulation of 11β-HSD1 reductase, intact Leydig cells", "result": "0.7 ± 0.04", "unit": "µM"}, {"measurement": "11β-HSD1 reductase activity", "setting": "[2]; intact ALCs, at 1 μM", "result": "200 % of control"}, {"measurement": "11β-HSD1 reductase activity", "setting": "[2]; intact ALCs, at 10 μM", "result": "200 % of control"}, {"measurement": "mode of action on 11β-HSD1 oxidase", "setting": "[3]; [5]", "result": "competitive inhibitor"}, {"measurement": "LOEL on 11β-HSD1 oxidase activity in ALC microsomes", "setting": "[3]; ALC microsomes, 10 nM-10 μM tested", "result": 100, "unit": "nM"}, {"measurement": "EC50/IC50 for 11β-HSD1 oxidase, microsome", "setting": "[3]; ALC microsomes, 25 nM CORT plus 0.2 mM NADP+, ND, not detected, Mean ± SEM (n = 4)", "result": "0.93 ±0.14 ×10^−6 M"}, {"measurement": "IC50", "setting": "[3]; ALC microsomes, 25 nM CORT plus 0.2 mM NADP+, read-out: IC50 for inhibiting 11β-HSD1 oxidase activity in ALC microsomes", "result": 0.93, "unit": "µM"}, {"measurement": "11β-HSD1 oxidase activity in ALC microsomes", "setting": "[3]; at 1 μM", "result": "60 % of control"}, {"measurement": "11β-HSD1 oxidase activity in ALC microsomes", "setting": "[3]; at 10 μM", "result": "25 % of control"}, {"measurement": "11β-HSD1 oxidase/reductase ratio in ALC microsomes", "setting": "[3]; at 0.1–10 μM", "result": "significantly decreased"}, {"measurement": "LOEL on 11β-HSD1 reductase activity in ALC microsomes", "setting": "[4]; ALC microsomes", "result": 100, "unit": "nM"}, {"measurement": "EC50", "setting": "[4]; ALC microsomes, 25 nM DHC plus 0.2 mM NADPH, Mean ± SEM (n = 4), read-out: EC50 for stimulation of 11β-HSD1 reductase, microsome", "result": "0.2 ± 0.01", "unit": "µM"}, {"measurement": "effect on 11β-HSD1 reductase activity in ALC microsomes at the highest concentration", "setting": "[4]; at the highest concentration (100 nM)", "result": "did not affect"}]}, {"smiles": "C[C@]12CC[C@H](O)CC1=CC[C@@H]1[C@@H]2CC[C@]2(C)C(=O)CC[C@@H]12", "note": "[DHEA, dehydroepiandrosterone]", "values": [{"measurement": "EC50", "setting": "[1]", "result": "0.97 ± 0.1", "unit": "µM"}, {"measurement": "lowest observable effective level (LOEL) on 11β-HSD1 oxidase activity", "setting": "[1]; intact ALCs", "result": 100, "unit": "nM"}, {"measurement": "11β-HSD1 oxidase activity", "setting": "[1]; intact ALCs, at 10 μM", "result": "300 % of control"}, {"measurement": "increase of 11β-HSD1 oxidase/reductase ratio", "setting": "[1]; intact ALCs, at 10 μM", "result": 26, "unit": "folds"}, {"measurement": "IC50", "setting": "[2]", "result": "1.04 ± 0.06", "unit": "µM"}, {"measurement": "lowest observable effective level (LOEL) on 11β-HSD1 reductase activity", "setting": "[2]; intact ALCs", "result": 100, "unit": "nM"}, {"measurement": "11β-HSD1 reductase activity", "setting": "[2]; intact ALCs, at 10 μM", "result": "12 % of control"}, {"measurement": "effect on microsomal 11β-HSD1 oxidase activity", "setting": "[3]; ALC microsomes, 10 nM-10 μM", "result": "did not affect; also recorded: nearly unchanged"}, {"measurement": "effect on microsomal 11β-HSD1 oxidase activity at 10 μM", "setting": "[3]; ALC microsomes, at 10 μM", "result": "inhibited"}, {"measurement": "11β-HSD1 oxidase/reductase ratio in ALC microsomes", "setting": "[3]; at 1 and 10 μM", "result": "significantly higher than control"}, {"measurement": "mode of action on 11β-HSD1 reductase", "setting": "[4]; [5]", "result": "potent competitive inhibitor"}, {"measurement": "LOEL on 11β-HSD1 reductase activity in ALC microsomes", "setting": "[4]; ALC microsomes", "result": 100, "unit": "nM"}, {"measurement": "11β-HSD1 reductase activity in ALC microsomes", "setting": "[4]; at 10 μM", "result": "25 % of control"}]}]}
